Assays:
[1] = molecular target: Growth hormone secretagogue receptor type 1 (Homo sapiens, UniProt Q92847); test: Agonist activity at human ghrelin receptor by cell based BACMAM FLIPR assay; format: functional
[2] = Cmax in Sprague-Dawley rat at 1 mg/kg, iv; format: ADME, organism-based; parameters: dose 1 mg/kg, route intravenous; settings: in vivo
Rattus norvegicus = test: AUC (0 to 6 hrs) in Sprague-Dawley rat at 3 mg/kg, po; format: ADME, organism-based, Plasma; parameters: time < 6 hr, dose 3 mg/kg, route oral; settings: in vivo
[3] = Tmax in Sprague-Dawley rat at 3 mg/kg, po; format: ADME, organism-based; parameters: dose 3 mg/kg, route oral; settings: in vivo
[4] = Half life in Sprague-Dawley rat at 1 mg/kg, iv; format: ADME, organism-based; parameters: dose 1 mg/kg, route intravenous; settings: in vivo
[5] = Volume of distribution at steady state in Sprague-Dawley rat at 1 mg/kg, iv; format: ADME, organism-based; parameters: dose 1 mg/kg, route intravenous; settings: in vivo, read-out: Vdss
[6] = Mean residence time in Sprague-Dawley rat at 1 mg/kg, iv; format: ADME, organism-based; parameters: dose 1 mg/kg, route intravenous; settings: in vivo
[7] = Cmax in Sprague-Dawley rat at 3 mg/kg, po; format: ADME, organism-based; parameters: dose 3 mg/kg, route oral; settings: in vivo
[8] = Total body clearance in Sprague-Dawley rat at 1 mg/kg, iv; format: ADME, organism-based; parameters: dose 1 mg/kg, route intravenous; settings: in vivo

Sequence of Growth hormone secretagogue receptor type 1 (Q92847 whole entry): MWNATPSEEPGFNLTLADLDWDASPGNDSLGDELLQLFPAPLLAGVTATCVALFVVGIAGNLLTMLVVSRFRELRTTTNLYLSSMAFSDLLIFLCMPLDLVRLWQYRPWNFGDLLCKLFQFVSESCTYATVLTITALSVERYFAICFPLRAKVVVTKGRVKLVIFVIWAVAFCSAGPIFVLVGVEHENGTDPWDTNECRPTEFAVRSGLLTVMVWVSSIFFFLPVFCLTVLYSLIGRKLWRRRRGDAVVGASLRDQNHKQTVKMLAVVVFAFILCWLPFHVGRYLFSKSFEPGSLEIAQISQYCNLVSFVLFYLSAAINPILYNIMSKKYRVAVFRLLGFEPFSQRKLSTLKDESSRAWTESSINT

EC50 [1]	also measured	SMILES
> 5010 nM	–	N[C@H]1CCN(C(=O)[C@H]2CCCCN2S(=O)(=O)c2ccc(-c3ccccc3)cc2)C1
316 nM	–	N[C@H]1CCN(C(=O)[C@@H]2CCCCN2S(=O)(=O)c2ccc(-c3cccnc3)cc2)C1
0.501 nM	–	Cc1ccc(-c2ccc(S(=O)(=O)N3C[C@H](O)C[C@H]3C(=O)N3CC[C@@H](N)C3)cc2F)o1
2.51 nM	–	Cc1ccc(-c2ccc(S(=O)(=O)N3CCCC[C@H]3C(=O)N3C[C@@H](C)N[C@@H](C)C3)cc2F)o1
0.0501 nM	–	Cc1ccc(-c2ccc(S(=O)(=O)N3CCCC[C@H]3C(=O)N3CC[C@@H](N)C3)cc2F)o1
0.158 nM	–	Cc1ccc(-c2ccc(S(=O)(=O)N3CCCC[C@H]3C(=O)N3CC[C@H](N)C3)cc2F)o1
15.8 nM	–	Cc1ccc(-c2ccc(S(=O)(=O)N3CC[C@H]3C(=O)N3CC[C@@H](N)C3)cc2F)o1
7.94 nM	–	N[C@H]1CCN(C(=O)[C@@H]2CCCCN2S(=O)(=O)c2ccc(-c3ccccc3)cc2)C1
15.8 nM	–	N[C@@H]1CCN(C(=O)[C@@H]2CCCCN2S(=O)(=O)c2ccc(-c3ccccc3)cc2)C1
31.6 nM	–	N[C@@H]1CCN(C(=O)[C@@H]2CCCCN2S(=O)(=O)c2ccc(-c3ccco3)cc2)C1
20 nM	–	N[C@H]1CCN(C(=O)[C@@H]2CCCCN2S(=O)(=O)c2ccc(NC(=O)c3ccccc3)cc2)C1
2 nM	–	COc1cccc(C(=O)Nc2ccc(S(=O)(=O)N3CCCC[C@H]3C(=O)N3CC[C@H](N)C3)cc2)c1
0.251 nM	–	Cc1ccc(-c2ccc(S(=O)(=O)N3CCCC[C@H]3C(=O)N3CC[C@@H](N)C3)cc2)o1
> 5010 nM	–	N[C@@H]1CCN(C(=O)[C@H]2CCCCN2S(=O)(=O)c2ccc(-c3ccccc3)cc2)C1
10 nM	–	CNC1CCN(C(=O)[C@@H]2CCCCN2S(=O)(=O)c2ccc(-c3ccc(C)o3)cc2)C1 (stereo not given in full)
7.94 nM	–	Cc1ccc(-c2ccc(S(=O)(=O)N3CCCC[C@H]3C(=O)N3CCCNCC3)cc2)o1
0.316 nM	–	N[C@@H]1CCN(C(=O)[C@@H]2CCCCN2S(=O)(=O)c2ccc(-c3cc(Cl)ccc3Cl)cc2)C1
1.26 nM	–	Cc1ccc(-c2ccc(S(=O)(=O)N3CCNC[C@H]3C(=O)N3CC[C@@H](N)C3)cc2)o1
31.6 nM	–	NC1CCN(C(=O)C2CCCCN2S(=O)(=O)c2ccc(-c3ccccc3)cc2)C1 (stereo not given)
5.01 nM	–	Cc1ccc(-c2ccc(S(=O)(=O)N3C[C@@H](O)C[C@H]3C(=O)N3CC[C@@H](N)C3)cc2F)o1
1 nM	–	N[C@@H]1CCN(C(=O)[C@@H]2CCCCN2S(=O)(=O)c2ccc(-c3cc(F)ccc3F)cc2)C1
0.2 nM	–	Cc1ccc(-c2ccc(S(=O)(=O)N3CC[C@H](O)[C@H]3C(=O)N3CC[C@@H](N)C3)cc2F)o1
3.98 nM	–	N[C@H]1CCN(C(=O)[C@@H]2CCCCN2S(=O)(=O)c2ccc(NC(=O)c3ccccc3F)cc2)C1
0.398 nM	Cmax [2]: 762 nM; AUC (Rattus norvegicus): 5 kg·min/L; Tmax [3]: 4 h; half-life [4]: 2.4 h; Vd [5]: 3.5 L/kg; MRT [6]: 2.4 h; Cmax [7]: 151 nM; clearance [8]: 25 mL/min/kg	Cc1ccc(-c2ccc(S(=O)(=O)N3CCC[C@H]3C(=O)N3CC[C@@H](N)C3)cc2F)o1
3.16 nM	–	N[C@@H]1CCN(C(=O)[C@@H]2CCCCN2S(=O)(=O)c2ccc(-c3ccco3)c(F)c2)C1
398 nM	–	N[C@@H]1CCN(C(=O)[C@@H]2CCCCN2S(=O)(=O)c2ccc(Br)cc2)C1
6.31 nM	–	Cc1ccc(-c2ccc(S(=O)(=O)N3CCCC[C@H]3C(=O)N3C[C@@H](C)N[C@@H](C)C3)cc2)o1

— ChEMBL document CHEMBL1143355, “Aryl sulphonyl amides as potent agonists of the growth hormone secretagogue (ghrelin) receptor” (Bioorg Med Chem Lett, 2009)
